Measurements reported in ChEMBL document CHEMBL1671659, “In vitro and in vivo properties of dihydrophthalazine antifolates, a novel family of antibacterial drugs” (Antimicrob Agents Chemother, 2009).
≈ marks a conversion by molar mass, not a printed value. Calls of active or inactive are those of the source. The calls are words filed in the database; no cut-off is given here.

How the values were obtained:
[1] = Tmax in NMRI mouse blood at 25 mg/kg administered through oral gavage measured after 7 hrs; format: ADME, organism-based; set-up: dose 25 mg/kg, route oral
[2] = system: Streptococcus pneumoniae; assay: Antibacterial activity against Streptococcus pneumoniae
[3] = system: Mus musculus; assay: Toxicity in po dosed NMRI mouse; format: organism-based; conditions: in vivo
[4] = system: Mus musculus; assay: Hepatotoxicity in NMRI mouse assessed as single-cell necrosis at 400 mg/kg administered through oral gavage for 5 days; format: toxicity, organism-based; set-up: dose 400 mg/kg, route oral; conditions: in vivo, 120 h
[5] = system: Staphylococcus aureus; assay: Antibacterial activity against trimethoprim-sensitive Staphylococcus aureus ATCC 29213 infected in NMRI mouse model of septicemia; format: functional
[6] = system: Mus musculus; assay: Hepatotoxicity in NMRI mouse assessed as single-cell necrosis at 400 mg/kg administered through oral gavage for 10 days; format: toxicity, organism-based; set-up: dose 400 mg/kg, route oral; conditions: in vivo, 240 h
[7] = system: Staphylococcus epidermidis; assay: Antibacterial activity against methicillin-sensitive dfrC, dfrA-positive and dfrD-negative Staphylococcus epidermidis; format: functional
[8] = Inhibition of trimethoprim-sensitive Staphylococcus aureus DfrB type dihydrofolate reductase
[9] = system: Streptococcus pneumoniae; assay: Antibacterial activity against Streptococcus pneumoniae in presence of 250 ug/ml thymidine; format: functional
[10] = system: Staphylococcus aureus; assay: Antibacterial activity against vancomycin, trimethoprim, methicillin-resistant Staphylococcus aureus VRS1 harboring dfrA and dfrB genes; format: functional
[11] = system: Staphylococcus aureus; assay: Antibacterial activity against trimethoprim-resistant Staphylococcus aureus BAS003908 infected in NMRI mouse model of septicemia; format: functional
[12] = system: Staphylococcus aureus; assay: Antibacterial activity against methicillin-resistant dfrB, dfrG-positive and dfrA-negative Staphylococcus aureus; format: functional
[13] = system: Haemophilus influenzae; assay: Antibacterial activity against Haemophilus influenzae in presence of 250 ug/ml thymidine; format: functional
[14] = system: Enterococcus faecalis; assay: Antibacterial activity against vancomycin-sensitive dfrE, dfrF-positive and folA-negative Enterococcus faecalis; format: functional
[15] = system: Staphylococcus aureus; assay: Antibacterial activity against vancomycin, trimethoprim-sensitive and methicillin-resistant Staphylococcus aureus ATCC 43300 harboring dfrB gene; format: functional
[16] = system: HeLa; assay: Cytotoxicity against human HeLa cells; format: cell-based
[17] = system: Staphylococcus aureus; assay: Antibacterial activity against trimethoprim-sensitive Staphylococcus aureus ATCC 29213 infected in NMRI mouse model of septicemia assessed as succumbed to infections at 1.6 mg/kg, iv; format: functional, organism-based; set-up: dose 1.6 mg/kg
[18] = system: Staphylococcus epidermidis; assay: Antibacterial activity against methicillin, vancomycin, trimethoprim-sensitive Staphylococcus epidermidis ATCC 14990 harboring dfrC gene; format: functional
[19] = system: Enterococcus faecalis; assay: Antibacterial activity against vancomycin-sensitive folA, dfrF-negative Enterococcus faecalis harboring A5T, K88N, F102Y mutation in dfrE gene; format: functional
[20] = system: Staphylococcus aureus; assay: Antibacterial activity against methicillin-resistant dfrA within SCCmec-N1, dfrA and dfrG -negative Staphylococcus aureus harboring F98Y mutation in dfrB gene; format: functional
[21] = Cmax in NMRI mouse blood at 25 mg/kg administered through oral gavage measured after 7 hrs; format: ADME, organism-based; set-up: dose 25 mg/kg, route oral
[22] = system: Staphylococcus epidermidis; assay: Antibacterial activity against methicillin-resistant dfrC, dfrA-positive and dfrA within SCCmec-N1, dfrD-negative Staphylococcus epidermidis; format: functional
[23] = system: Streptococcus pneumoniae; assay: Antibacterial activity against Streptococcus pneumoniae in presence of 50 ug/ml thymidine; format: functional
[24] = system: Enterococcus faecalis; assay: Antibacterial activity against Enterococcus faecalis in presence of 50 ug/ml thymidine; format: functional
[25] = system: Mus musculus; assay: Hepatotoxicity in NMRI mouse assessed as inflammatory infiltrates at 400 mg/kg administered through oral gavage for 10 days; format: toxicity, organism-based; set-up: dose 400 mg/kg, route oral; conditions: in vivo, 240 h
[26] = system: Mus musculus; assay: Hepatotoxicity in NMRI mouse assessed as increase in mitosis at 400 mg/kg administered through oral gavage for 10 days; format: toxicity, organism-based; set-up: dose 400 mg/kg, route oral; conditions: in vivo, 240 h
[27] = system: Staphylococcus aureus; assay: Antibacterial activity against trimethoprim-resistant Staphylococcus aureus BAS003908; format: functional
[28] = AUC (0 to t) in NMRI mouse blood at 25 mg/kg administered through oral gavage after 7 hrs; format: ADME, organism-based; set-up: time < 7 hr, dose 25 mg/kg, route oral
[29] = system: Enterococcus faecium; assay: Antibacterial activity against Enterococcus faecium in presence of 50 ug/ml thymidine; format: functional
[30] = system: Staphylococcus aureus; assay: Antibacterial activity against methicillin-sensitive dfrB-positive abd dfrA, dfrG-negative Staphylococcus aureus; format: functional
[31] = system: Haemophilus influenzae; assay: Antibacterial activity against Haemophilus influenzae; format: functional
[32] = Oral bioavailability in NMRI mouse; format: ADME, organism-based; conditions: in vivo
[33] = system: Enterococcus faecium; assay: Antibacterial activity against Enterococcus faecium; format: functional
[34] = Inhibition of trimethoprim-resistant Staphylococcus aureus Type S1 dihydrofolate reductase
[35] = system: Staphylococcus aureus; assay: Antibacterial activity against methicillin-resistant dfrB, dfrA-positive and dfrA within SCCmec-N1, dfrG-negative Staphylococcus aureus; format: functional
[36] = Genotoxicity in Salmonella enterica serovar Typhimurium assessed as increase in number of bacterial revertant colonies by Ames test; format: toxicity; conditions: salmonella enterica subsp. enterica serovar typhimurium
[37] = system: Enterococcus faecalis; assay: Antibacterial activity against Enterococcus faecalis; format: functional
[38] = system: Staphylococcus epidermidis; assay: Antibacterial activity against methicillin-sensitive dfrC-positive and dfrA, dfrD-negative Staphylococcus epidermidis; format: functional
[39] = system: Enterococcus faecium; assay: Antibacterial activity against Enterococcus faecium in presence of 250 ug/ml thymidine; format: functional
[40] = system: Staphylococcus aureus; assay: Antibacterial activity against trimethoprim-sensitive Staphylococcus aureus ATCC 29213; format: functional
[41] = system: Mus musculus; assay: Hepatotoxicity in NMRI mouse assessed as increase in liver weight at 400 mg/kg administered through oral gavage for 10 days; format: toxicity, organism-based; set-up: dose 400 mg/kg, route oral; conditions: in vivo, 240 h
[42] = system: Staphylococcus epidermidis; assay: Antibacterial activity against methicillin, vancomycin-sensitive and trimethoprim-resistant Staphylococcus epidermidis BAS000635 harboring dfrC and dfrA genes; format: functional
[43] = system: Haemophilus influenzae; assay: Antibacterial activity against Haemophilus influenzae in presence of 50 ug/ml thymidine
[44] = system: Mus musculus; assay: Hepatotoxicity in NMRI mouse assessed as increase in mitosis at 400 mg/kg administered through oral gavage for 5 days; format: toxicity, organism-based; set-up: dose 400 mg/kg, route oral; conditions: in vivo, 120 h
[45] = system: Staphylococcus aureus; assay: Antibacterial activity against trimethoprim-sensitive Staphylococcus aureus ATCC 29213 infected in NMRI mouse model of septicemia assessed as complete protection from infections at 3.1 mg/kg, iv; format: functional, organism-based; set-up: dose 3.1 mg/kg
[46] = system: Enterococcus faecium; assay: Antibacterial activity against vancomycin-sensitive dfrE, dfrF-negative and folA-positive Enterococcus faecium; format: functional
[47] = target: Dihydrofolate reductase (Staphylococcus aureus, UniProt P0A017, F99Y); assay: Inhibition of trimethoprim-resistant Staphylococcus aureus DfrB type dihydrofolate reductase F98Y mutant
[48] = system: Staphylococcus epidermidis; assay: Antibacterial activity against methicillin-sensitive dfrA, dfrD-negative Staphylococcus epidermidis harboring F98Y mutation in dfrC gene; format: functional
[49] = system: Enterococcus faecium; assay: Antibacterial activity against vancomycin-resistant dfrE, dfrF-negative and folA-positive Enterococcus faecium; format: functional
[50] = system: Enterococcus faecalis; assay: Antibacterial activity against Enterococcus faecalis in presence of 250 ug/ml thymidine; format: functional
[51] = system: Staphylococcus aureus; assay: Antibacterial activity against methicillin, vancomycin, trimethoprim-sensitive Staphylococcus aureus ATCC 29213 harboring dfrB gene; format: functional
[52] = system: Mycobacterium avium; assay: Antibacterial activity against Mycobacterium avium assessed as inhibition of bacterial growth at <=4 ug/ml; format: functional; set-up: scale not given: the % may be the effect or the level left
[53] = system: Mus musculus; assay: Hepatotoxicity in NMRI mouse assessed as inflammatory infiltrates at 400 mg/kg administered through oral gavage for 5 days; format: toxicity, organism-based; set-up: dose 400 mg/kg, route oral; conditions: in vivo, 120 h
[54] = system: Mus musculus; assay: Hepatotoxicity in NMRI mouse assessed as increase in liver weight at 400 mg/kg administered through oral gavage for 5 days; format: toxicity, organism-based; set-up: dose 400 mg/kg, route oral; conditions: in vivo, 120 h

COc1ncc(C2c3ccccc3C=NN2C(=O)/C=C/c2cc(Cc3cnc(N)nc3N)cc(OC)c2OC)cn1 (stereo not given)
Tmax [1]: 30 min | MIC [2]: 64 µg/mL (≈ 116 µM) | Activity [3]: 400 mg/kg | Activity [4]: < 10% | ED50 [5]: 1.6 mg/kg | Activity [6]: < 10% | MIC [7]: 0.5 µg/mL (≈ 0.905 µM) | IC50 [8]: 5.2 nM | MIC [9]: ≥ 128 µg/mL | MIC [10]: 4 µg/mL (≈ 7.24 µM) | ED50 [11]: 3.1 mg/kg | MIC [12]: 32 µg/mL (≈ 57.9 µM) | MIC [13]: 32 µg/mL | MIC [14]: > 128 µg/mL | MIC [15]: 0.25 µg/mL (≈ 0.452 µM) | IC50 [16]: 12000 nM | Activity [17]: inactive | MIC [18]: 0.125 µg/mL (≈ 0.226 µM) | MIC [19]: 0.5 µg/mL (≈ 0.905 µM) | MIC [20]: 0.5 µg/mL (≈ 0.905 µM) | Cmax [21]: 3240 ng/mL | MIC [22]: 0.5 µg/mL (≈ 0.905 µM) | MIC [23]: 32 µg/mL | MIC [24]: ≤ 0.25 µg/mL | Activity [25]: < 10% | Activity [26]: < 10% | MIC [27]: 0.5 µg/mL (≈ 0.905 µM) | AUC(0-t) at 7 h [28]: 10600 ng·h/mL | MIC [29]: ≥ 128 µg/mL | MIC [30]: ≤ 0.25 µg/mL | MIC [31]: > 128 µg/mL | bioavailability [32]: 25% | MIC [33]: 1 µg/mL (≈ 1.81 µM) | IC50 [34]: 121 nM | MIC [35]: 1 µg/mL (≈ 1.81 µM) | MIC ([35]; Staphylococcus aureus, read-out: MIC): 1 µg/mL (≈ 1.81 µM) | Activity [36]: Non-toxic | MIC [37]: ≤ 0.25 µg/mL | MIC [38]: ≤ 0.25 µg/mL | MIC [39]: > 128 µg/mL | MIC [40]: < 0.25 µg/mL | Activity [41]: < 10% | MIC [42]: 4 µg/mL (≈ 7.24 µM) | MIC [43]: 64 µg/mL | Activity [44]: < 10% | Activity [45]: Active | MIC [46]: ≤ 0.25 µg/mL | IC50 [47]: 22.6 nM | MIC [48]: 0.5 µg/mL (≈ 0.905 µM) | MIC [49]: 2 µg/mL (≈ 3.62 µM) | MIC [50]: 1 µg/mL | MIC [51]: 0.5 µg/mL (≈ 0.905 µM) | Activity [52]: 77% | Activity [53]: < 10% | Activity [54]: < 10%
